Test results: article PMC11279468, “Exploring a New Generation of Pyrimidine and Pyridine Derivatives as Anti-Influenza Agents Targeting the Polymerase PA–PB1 Subunits Interaction” (Pharmaceutics, 2024)

Legend:
[1] = target: PA–PB1 interaction (6His-PA(239–716) / GST-PB1(1–25)) (Influenza A virus, UniProt P03433); assay: biochemical; assay type: binding
in vitro = details: dog
Procedure: The cytotoxicity of compounds was tested in MDCK cells using the 3-(4,5-dimethylthiazol-2-yl)-2,5-diphenyl tetrazolium bromide (MTT) method, as previously reported [32]. Briefly, MDCK cells (seeded at a density of 2 × 10^4 per well) were grown in 96-well plates for 24 h and then treated with serial dilutions of test compounds, or DMSO as a control, in DMEM supplemented with 10% FBS. After incubation at 37 °C for 48 h, 5 mg/mL of MTT (Sigma, Tokyo, Japan) in PBS was added into each well and incubated at 37 °C for a further 4 h. Successively, a solubilization solution was added to lyse the cells and incubated overnight at 37 °C. Finally, optical density was read at the wavelength of 570 nm on a microtiter plate reader (MultiSkan FC, ThermoFisher Scientific).

[2] = test system: Influenza virus strain A/PR/8/34 (H1N1); assay: microbe, parasite or virus in culture; details: unidentified influenza virus, MDCK, read-out: EC50 (PRA)

Molecule `COC(=O)[C@H](Cc1ccc(O)cc1)NC(=O)CSc1nc(-c2ccccc2)cc(-c2ccc(F)cc2)n1` [Compound 3c, Methyl (2-((4-(4-fluorophenyl)-6-phenylpyrimidin-2-yl)thio)acetyl)-L-tyrosinate] has an IC50 [1] of 172 ± 7 µM, a melting point of 167 to 168 °C and a CC50 at 48 h (in vitro) greater than 250 µM. For the same molecule, the EC50 [2] was greater than 100 µM.

`Cc1cccc(NC(=O)CSc2nc(-c3ccc(Cl)cc3)cc(-c3ccc(Cl)cc3)n2)c1` [Compound 2a, 2-{[4,6-Bis(4-chlorophenyl)pyrimidin-2-yl]thio}-N-(m-tolyl)acetamide] showed an IC50 [1] of 70.8 ± 19.5 µM, a melting point of 225 to 227 °C and a CC50 at 48 h (in vitro) greater than 250 µM. It also gave an EC50 [2] greater than 100 µM.

For `Cc1cccc(NC(=O)CSc2nc(-c3ccccc3)cc(-c3cccc4ccccc34)n2)c1` [Compound 2f, 2-{[4-(Naphthalen-1-yl)-6-phenylpyrimidin-2-yl)thio)-N-(m-tolyl)acetamide], the IC50 [1] was greater than 200 µM, the “activity as PA–PB1 disruptors (in words)” value [1] was “lack of activity as PA–PB1 disruptors” and the melting point was 147 to 148 °C. For the same molecule, the CC50 at 48 h (in vitro) was greater than 250 µM and the EC50 [2] was 21.1 ± 8 µM.

In the case of `COC(=O)[C@H](Cc1c[nH]cn1)NC(=O)CSc1nc(-c2ccccc2)cc(-c2ccc(F)cc2)n1` [Compound 3d, Methyl (2-((4-(4-fluorophenyl)-6-phenylpyrimidin-2-yl)thio)acetyl)-L-histidinate], the IC50 [1] is reported as 70 ± 2.8 µM, the melting point is reported as 77 to 78 °C and the CC50 at 48 h (in vitro) is reported as 98 ± 11.3 µM. The EC50 [2] was greater than 100 µM.

Molecule `Cc1cccc(NC(=O)CSc2nc(-c3ccc(Cl)cc3)cc(-c3cccc4ccccc34)n2)c1` [Compound 2g, 2-{[4-(4-Chlorophenyl)-6-(naphthalen-1-yl)pyrimidin-2-yl]thio}-N-(m-tolyl)acetamide] has an IC50 [1] greater than 200 µM, a melting point of 103 to 107 °C and a CC50 at 48 h (in vitro) greater than 250 µM. For the same molecule, the EC50 [2] was greater than 100 µM.

For `CC[C@H](C)[C@H](NC(=O)CSc1nc(-c2ccc(F)cc2)cc(-c2ccc(F)cc2)n1)C(=O)OC` [Compound 3f, Methyl (2-((4,6-bis(4-fluorophenyl)pyrimidin-2-yl)thio)acetyl)-L-isoleucinate], the IC50 [1] was greater than 200 µM, the melting point was 150 to 151 °C and the CC50 at 48 h (in vitro) was greater than 250 µM. The EC50 [2] was greater than 100 µM.

For `Cc1cccc(NC(=O)CSc2nc(-c3ccc(F)cc3)cc(-c3ccc(F)cc3)n2)c1` [Compound 2b, 2-{[4,6-Bis(4-fluorophenyl)pyrimidin-2-yl]thio}-N-(m-tolyl)acetamide], the IC50 [1] was 137 ± 35 µM, the melting point was 210 to 211 °C and the CC50 at 48 h (in vitro) was greater than 250 µM. The EC50 [2] was 62.5 ± 4.3 µM.

With `Cc1cccc(NC(=O)CSc2nc(-c3ccccc3)cc(-c3ccc(Cl)cc3)n2)c1` [Compound 2c, 2-{[4-(4-Chlorophenyl)-6-phenylpyrimidin-2-yl]thio}-N-(m-tolyl)acetamide] the IC50 [1] was 86 ± 5.3 µM, the melting point was 204 to 206 °C and the CC50 at 48 h (in vitro) was greater than 250 µM. For the same molecule, the EC50 [2] was 45.5 ± 2.1 µM.

Work on `COC(=O)[C@H](Cc1ccc(O)cc1)NC(=O)CSc1nc(-c2ccc(F)cc2)cc(-c2ccc(F)cc2)n1` [Compound 3g, Methyl (2-((4,6-bis(4-fluorophenyl)pyrimidin-2-yl)thio)acetyl)-L-tyrosinate] yielded an IC50 [1] greater than 200 µM, a CC50 at 48 h (in vitro) greater than 250 µM and an EC50 [2] greater than 100 µM.

With `COC(=O)[C@H](Cc1c[nH]cn1)NC(=O)CSc1cc(-c2ccccc2)cc(-c2ccc(F)cc2)n1` [Compound 3n, Methyl (2-((6-(4-fluorophenyl)-4-phenylpyridin-2-yl)thio)acetyl)-L-histidinate] the IC50 [1] was greater than 200 µM and the melting point was 155 to 156 °C.

In the case of `CC[C@H](C)[C@H](NC(=O)CSc1cc(-c2ccccc2)cc(-c2ccc(F)cc2)n1)C(=O)OC` [Compound 3l, Methyl (2-((6-(4-fluorophenyl)-4-phenylpyridin-2-yl)thio)acetyl)-L-isoleucinate], the IC50 [1] is reported as greater than 200 µM and the melting point is reported as 76 to 77 °C.

With `COC(=O)[C@@H](NC(=O)CSc1nc(-c2ccc(F)cc2)cc(-c2ccc(F)cc2)n1)C(C)C` [Compound 3e, Methyl (2-((4,6-bis(4-fluorophenyl)pyrimidin-2-yl)thio)acetyl)-L-valinate] the IC50 [1] was greater than 200 µM, the melting point was 174 to 175 °C and the CC50 at 48 h (in vitro) was greater than 250 µM. It also gave an EC50 [2] greater than 100 µM.

`COC(=O)[C@H](Cc1ccc(O)cc1)NC(=O)CSc1cc(-c2ccccc2)cc(-c2ccccc2)n1` [Compound 3k, Methyl (2-((4,6-diphenylpyridin-2-yl)thio)acetyl)-L-tyrosinate] gave an IC50 [1] greater than 200 µM and a melting point of 111 to 112 °C.

With `COC(=O)[C@H](Cc1c[nH]cn1)NC(=O)CSc1nc(-c2ccc(F)cc2)cc(-c2ccc(F)cc2)n1` [Compound 3h, Methyl (2-((4,6-bis(4-fluorophenyl)pyrimidin-2-yl)thio)acetyl)-L-histidinate] the IC50 [1] was 108 ± 14 µM, the melting point was 107 to 108 °C and the CC50 at 48 h (in vitro) was greater than 250 µM. For the same molecule, the EC50 [2] was greater than 100 µM.

`Cc1cccc(NC(=O)CSc2cc(-c3ccccc3)cc(Sc3ccccc3)n2)c1` [Compound 2m, 2-{[4-Phenyl-6-(phenylthio)pyridin-2-yl]thio}-N-(m-tolyl)acetamide] gave an IC50 [1] of 141 ± 44 µM, a melting point of 122 to 123 °C and a CC50 at 48 h (in vitro) greater than 250 µM. For the same molecule, the EC50 [2] was 32.3 ± 3.2 µM.

In the case of `Cc1cccc(NC(=O)CSc2nc(-c3ccc(F)cc3)cc(-c3ccc(Cl)cc3)n2)c1` [Compound 2e, 2-{[4-(4-Chlorophenyl)-6-(4-fluorophenyl)pyrimidin-2-yl]thio}-N-(m-tolyl)acetamide], the IC50 [1] is reported as 125 ± 37 µM, the melting point is reported as 213 to 217 °C and the CC50 at 48 h (in vitro) is reported as 206 ± 12 µM. For the same molecule, the EC50 [2] was 29.5 ± 0.7 µM.

For `Cc1cccc(NC(=O)CSc2nc(-c3ccc(F)cc3)cc(-c3cccc4ccccc34)n2)c1` [Compound 2h, 2-{[4-(4-Fluorophenyl)-6-(1-naphthyl)pyrimidin-2-yl]thio}-N-(3-methylphenyl)acetamide], the IC50 [1] was greater than 200 µM, the “activity as PA–PB1 disruptors (in words)” value [1] was “lack of activity as PA–PB1 disruptors” and the melting point was 145 to 147 °C. The CC50 at 48 h (in vitro) was greater than 250 µM and the EC50 [2] was 14.8 ± 1.6 µM.

Work on `CC[C@H](C)[C@H](NC(=O)CSc1cc(-c2ccccc2)cc(-c2ccccc2)n1)C(=O)OC` [Compound 3j, Methyl (2-((4,6-diphenylpyridin-2-yl)thio)acetyl)-L-isoleucinate] yielded an IC50 [1] greater than 200 µM and a melting point of 70 to 71 °C.

In the case of `COC(=O)[C@@H](NC(=O)CSc1nc(-c2ccccc2)cc(-c2ccc(F)cc2)n1)C(C)C` [Compound 3a, Methyl (2-((4-(4-fluorophenyl)-6-phenylpyrimidin-2-yl)thio)acetyl)-L-valinate], the IC50 [1] is reported as greater than 200 µM, the melting point is reported as 152 to 153 °C and the CC50 at 48 h (in vitro) is reported as 234 ± 19 µM. It also gave an EC50 [2] greater than 100 µM.

In the case of `COC(=O)[C@H](Cc1ccc(O)cc1)NC(=O)CSc1cc(-c2ccccc2)cc(-c2ccc(F)cc2)n1` [Compound 3m, Methyl (2-((6-(4-fluorophenyl)-4-phenylpyridin-2-yl)thio)acetyl)-L-tyrosinate], the IC50 [1] is reported as greater than 200 µM and the melting point is reported as 151 to 152 °C.

Molecule `CC[C@H](C)[C@H](NC(=O)CSc1nc(-c2ccccc2)cc(-c2ccc(F)cc2)n1)C(=O)OC` [Compound 3b, Methyl (2-((4-(4-fluorophenyl)-6-phenylpyrimidin-2-yl)thio)acetyl)-L-isoleucinate] has an IC50 [1] greater than 200 µM, a melting point of 94 to 95 °C and a CC50 at 48 h (in vitro) greater than 250 µM. For the same molecule, the EC50 [2] was greater than 100 µM.

Molecule `COC(=O)[C@@H](NC(=O)CSc1cc(-c2ccccc2)cc(-c2ccccc2)n1)C(C)C` [Compound 3i, Methyl (2-((4,6-diphenylpyridin-2-yl)thio)acetyl)-L-valinate] has an IC50 [1] greater than 200 µM and a melting point of 63 to 64 °C.
